Earlier results as cited in patent publication US20100015233A1, “anti-parasitic compositions” (priority 2006, published 2010).
≈ marks a conversion by molar mass, not a printed value.

How the values were obtained:
[1] = in vivo

SMILES | half-life [1] [h] | solubility in water [µg/mL]
CCCCN(CCCC)CC(O)c1cc(Cl)cc2c1-c1ccc(Cl)cc1/C2=C/c1ccc(Cl)cc1 (centres unmarked) [Lumefantrine] | 72 to 140 | 
C[C@@H]1CC[C@H]2[C@@H](C)C(=O)O[C@@H]3O[C@@]4(C)CC[C@@H]1[C@]32OO4 [artemisinin] |  | 84 (≈ 298 µM)
